Experimental data reported in patent US9958436B2, “Determination of cell chirality” (THE TRUSTEES OF COLUMBIA UNIVERSITY IN THE CITY OF NEW YORK, priority 2011, dated 2018).
Entries after “also recorded” stand apart in the source; their conditions may differ.

Key:
[1] = test system: C2C12 cells; experiment: Cell chirality (alignment) on micropatterned rings, drug treatment, C2C12; type: cell-based, mouse; details: for CCW: counter-clockwise alignment / CW: clockwise alignment / N/S: not significantly biased to CW or CCW: C2C12 on ring patterns, count of rings
Procedure: (§1) Cells were maintained in tissue flasks with culture media specified in TABLE 2. After reaching 70% confluency, cells were trypsinized and seeded onto protein-coated patterned surfaces. Once the cells attached, extra cells were washed off with fresh medium. At this time drugs were added into the culture medium if necessary. Phase contrast images were taken after overnight incubation at 37° C. and 5% CO2 when cells reached confluency on the ring patterns.
(§2) To examine the role of actin in left-right (LR) asymmetry, cells were tested with 20-500 nM Latrunculin A, 0.05-1.0 μg/ml Cytochalasin D, and 1-100 nM Jasplakinolide. Latrunculin A inhibits actin polymerization by forming a 1:1 molar complex with G-actin, thereby inhibiting its ability to polymerize into F-actin (M. Coue, S. L. Brenner, I. Spector, E. D. Korn, FEBS Lett 213, 316 (Mar. 23, 1987)). Cytochalasin D inhibits actin polymerization by binding to the growing ends of F-actin chains and thus preventing the attachment and addition of G-actin monomers (J. A. Cooper, J Cell Biol 105, 1473 (October, 1987)). Jasplakinolide is known to bind to and stabilize actin filaments in vitro (M. R. Bubb, I. Spector, B. B. Beyer, K. M. Fosen, J Biol Chem 275, 5163 (Feb. 18, 2000)).
(§3) To examine the role of microtubules in LR asymmetry, 0.2-2 μM Nocodazole, and 0.3-30 nM Taxol were used. Nocodazole suppresses microtubule dynamics by destabilizing and disassembling microtubules (J. A. Cooper, J Cell Biol 105, 1473 (October, 1987)). Taxol inhibits the microtubule depolymerization and stabilizes microtubules (W. B. Derry, L. Wilson, M. A. Jordan, Biochemistry 34, 2203 (Feb. 21, 1995)).
To examine the role of the actomyosin motor, cells were tested with […], […], and 0.5-10 […]. Y-27632 works as a selective inhibitor to prevent the phosphorylation of the myosin regulatory light chain (T. Ishizaki et al., Mol Pharmacol 57, 976 (May, 2000)). ML-7 acts as a selective inhibitor of the myosin light chain kinase (M. Isemura, T. Mita, K. Satoh, K. Narumi, M. Motomiya, Cell Biol Int Rep 15, 965 (October, 1991)). Blebbistatin forms a low actin affinity complex through binding to myosin heads, causing the inhibition of nonmuscle myosin II ATPase activity (M. Kovacs, J. Toth, C. Hetenyi, A. Malnasi-Csizmadia, J. R. Sellers, J Biol Chem 279, 35557 (Aug. 20, 2004)).
(§4) High-resolution phase contrast images of live patterned cells were taken at a resolution of ˜0.645 μm/pixel, and analyzed using a custom-written code in MatLab (MathWorks, Natick, Mass.), based on the automated detection of intensity gradient and circular statistics (W. J. Karlon et al., Ann Biomed Eng 27, 712 (November-December, 1999)). In this algorithm, the intensity gradient was determined pixel by pixel with a Gaussian differential filter. In each sub-region of the image, the dominant local direction was determined using an accumulator scheme, in which the orientation of each pixel follows a von Mises distribution, a circular analogue of the linear normal distribution. Subsequently, the orientation in each sub-region was converted into an angle bias based on its deviation from the circumferential direction (see e.g., FIG. 2C). Mean angle and standard deviation of LR asymmetry were calculated for all sub-regions, using circular statistics (N. I. Fish, Statistical Analysis of Circular Data. (Cambridge University Press, Cambridge, UK, 1993)). […] The sub-region size was therefore set to 20 by 20 pixels (i.e., 13 by 13 μm).
(§5) Cell chirality on ring patterns (i.e., clockwise or counterclockwise alignment) was determined from calculated biased angles in local regions with one sample test for the mean angle, analogous to the one sample t-test in linear statistics (N. I. Fish, Statistical Analysis of Circular Data. (Cambridge University Press, Cambridge, UK, 1993)).

[2] = test system: skin tumor cancer cells; experiment: Cell chirality on patterned substrates, skin tumor cancer cells, actin interfering reagent; type: cell-based, human; details: count of patterns
Procedure: as §4, §5
Experiments were conducted to determine whether cancer cell chirality depends on actin function. Skin cancer cells were treated with actin interfering reagent Lantrunculin A at 0 nM (control), 20 nM, 50 nM, 100 nM, or 200 nM.

[3] = test system: C2C12 cells; experiment: Cell polarization by organelle positioning relative to ring boundaries (immunofluorescence); type: cell-based, mouse; details: C2C12 on rings; centrosome vs nucleus position
Procedure: After imaging, cells were fixed with 4% formaldehyde in cytoskeletal buffer (10 mM MES, 138 mM KCl, 3 mM MgCl2, 2 mM EGTA, and 0.32 M sucrose) for 25 minutes. For actin/tubulin double staining, the cells were incubated with phalloidin-TRITC (1:400; Invitrogen) and anti-Tubulin-FITC (1:50; Sigma) for 1 hour. For the Golgi apparatus positioning inside patterned rings, the cells were incubated in 1 μg/ml anti-human golgin-97 (Invitrogen) for 1 hour. After secondary antibodies, cell nuclei were stained with 200 ng/ml 40, 6-diamidino-2-phenylindole (DAPI; Sigma) for 10 minutes. Finally, the cells were mounted with Fluoromount-G medium (SouthernBiotech, Birmingham, Ala.).

[4] = test system: hUVEC cells; experiment: Cell chirality (alignment) on micropatterned rings, drug treatment, hUVEC; type: cell-based, human; details: hUVEC on ring patterns, count of rings
Procedure: as §1, §2, §3, §4, §5

[5] = test system: C2C12 cells; experiment: Analysis of cell migration on ring patterns (time-lapse, digital image correlation); type: cell-based, mouse; details: C2C12 treated
Procedure: For time-lapse videos, cells were patterned on a gold-coated glass-bottom Petri dish (ibid, München, Germany). After cells attached, the dish was transferred into an environmental chamber (37° C. and 5% CO2) and image time series were recorded every 5 minutes at a resolution of 1.56 μm/pixel for a total time of 20-40 hours. As the image capture rate is much higher than the characteristic time for cell migration, digital image correlation, together with sub-pixel displacement estimation, were used to determine the displacements of cell migration. A FFT (fast Fourier transform)-based method was first utilized to match regions of two sequential phase contrast images. The calculated displacement values were then used as inputs for a more accurate estimation of displacement fields at a sub-pixel level, using a second-order image correlation algorithm described previously (P. Zhou, K. E. Goodson, Opt Eng 40, 1613 (August, 2001)). To evaluate the bias of cell migration, the obtained velocity field was further projected in the circumferential (Vθ) and radial (Vr) direction.

Structure (SMILES): C/C1=C/C(=O)O[C@@H]2C[C@@H](CC[C@H](C)/C=C\C=C\CC1)O[C@@](O)([C@@H]1CSC(=O)N1)C2 [Latrunculin A]
- CCW: counter-clockwise alignment ([1]; drug 50 nM): 2
- CW: clockwise alignment ([1]; drug 50 nM): 61
- N/S: not significantly biased to CW or CCW ([1]; drug 50 nM): 15
- CCW: counter-clockwise alignment ([1]; drug 200 nM): 0
- CW: clockwise alignment ([1]; drug 200 nM): 57
- N/S: not significantly biased to CW or CCW ([1]; drug 200 nM): 7
- CCW: counter-clockwise alignment ([1]; drug 500 nM): 0
- CW: clockwise alignment ([1]; drug 500 nM): 1
- N/S: not significantly biased to CW or CCW ([1]; drug 500 nM): 10
- effect on chirality of C2C12 cells ([1]; low concentrations of the actin treadmilling inhibitors): reversed the chirality of C2C12 cells from CCW into CW
- CCW: counter-clockwise alignment ([2]; 20 nM): 0
- CW: clockwise alignment ([2]; 20 nM): 21
- N/S: not significantly biased to CW or CCW ([2]; 20 nM): 4
- CCW: counter-clockwise alignment ([2]; 50 nM): 1
- CW: clockwise alignment ([2]; 50 nM): 28
- N/S: not significantly biased to CW or CCW ([2]; 50 nM): 2
- CCW: counter-clockwise alignment ([2]; 100 nM): 0
- CW: clockwise alignment ([2]; 100 nM): 32
- N/S: not significantly biased to CW or CCW ([2]; 100 nM): 0
- CCW: counter-clockwise alignment ([2]; 200 nM): 2
- CW: clockwise alignment ([2]; 200 nM): 8
- N/S: not significantly biased to CW or CCW ([2]; 200 nM): 3
- effect on cell polarization (organelle positioning relative to boundaries) [3]: did not alter cell polarization; also recorded: does not change the polarity of C2C12 cells
- CCW: counter-clockwise alignment ([4]; drug 20 nM): 0
- CW: clockwise alignment ([4]; drug 20 nM): 36
- N/S: not significantly biased to CW or CCW ([4]; drug 20 nM): 8
- CCW: counter-clockwise alignment ([4]; drug 50 nM): 0
- CW: clockwise alignment ([4]; drug 50 nM): 2
- N/S: not significantly biased to CW or CCW ([4]; drug 50 nM): 19
- CCW: counter-clockwise alignment ([4]; drug 200 nM): 5
- CW: clockwise alignment ([4]; drug 200 nM): 2
- N/S: not significantly biased to CW or CCW ([4]; drug 200 nM): 56
- CCW: counter-clockwise alignment ([4]; drug 500 nM): 1
- CW: clockwise alignment ([4]; drug 500 nM): 2
- N/S: not significantly biased to CW or CCW ([4]; drug 500 nM): 42
- direction of cell migration at the boundaries ([5]; versus untreated): reversal at the boundaries
- cell migration velocity at the ring boundaries ([5]; CW along the outer ring and CCW along the inner ring): 15 μm/hr
